This is an account of results in ChEMBL document CHEMBL3608221, “Regulating the master regulator: Controlling heat shock factor 1 as a chemotherapy approach” (Bioorg Med Chem Lett, 2015).

Experiment [1] concerns the target T1, Heat shock factor protein 1 (Homo sapiens) (UniProt Q00613).
T1 sequence (whole entry): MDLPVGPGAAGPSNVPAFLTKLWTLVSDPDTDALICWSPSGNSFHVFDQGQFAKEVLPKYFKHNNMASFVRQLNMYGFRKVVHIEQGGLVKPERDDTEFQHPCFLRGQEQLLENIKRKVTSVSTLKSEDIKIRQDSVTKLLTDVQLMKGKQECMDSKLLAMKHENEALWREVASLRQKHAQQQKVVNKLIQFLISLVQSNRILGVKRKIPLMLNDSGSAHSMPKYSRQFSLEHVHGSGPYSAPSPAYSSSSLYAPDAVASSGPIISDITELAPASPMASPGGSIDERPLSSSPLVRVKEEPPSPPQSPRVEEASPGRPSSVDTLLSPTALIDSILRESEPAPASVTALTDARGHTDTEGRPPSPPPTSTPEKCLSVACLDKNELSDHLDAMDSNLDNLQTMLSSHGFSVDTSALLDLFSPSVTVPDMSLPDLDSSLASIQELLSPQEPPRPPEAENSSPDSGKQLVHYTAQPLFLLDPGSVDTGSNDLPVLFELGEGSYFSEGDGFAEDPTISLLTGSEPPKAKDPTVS
The experiment can be described thus: Inhibition of HSF1 in human HCT116 cells assessed as potentiation of SM253-induced increase in cell death at 50 uM relative to SM253 alone. Type of experiment: cell-based. Set-up: scale not given: the % may be the effect or the level left. To be noted: HCT-116.

For experiment [2], the target named is T1, Heat shock factor protein 1 (Homo sapiens). The experiment can be described thus: Inhibition of HSF1 in human MIAPaCa2 cells assessed as potentiation of SM253-induced increase in cell death at 50 uM relative to SM253 alone. Type of experiment: cell-based. Set-up: scale not given: the % may be the effect or the level left. To be noted: MIA PaCa-2.
Experiment [3] has the same target. The experiment can be described thus: Inhibition of HSF1 in human HeLa cells assessed as potentiation of radicicol-induced increase in cell death at 2 uM relative to radicicol alone. Type of experiment: cell-based. More on the design: scale not given: the % may be the effect or the level left.
Experiment [4] shares this target. The experiment can be described thus: Inhibition of HSF1 in human HCT116 cells assessed as potentiation of SM258-induced reduction in HSF1 at 15 uM relative to SM258 alone. Type of experiment: cell-based. More on the design: scale not given: the % may be the effect or the level left. To be noted: HCT-116.
Experiment [5] shares this target. The experiment can be described thus: Inhibition of HSF1 in human HCT116 cells assessed as potentiation of SM253-induced reduction in HSF1 at 50 uM relative to SM253 alone. Type of experiment: cell-based. Set-up: scale not given: the % may be the effect or the level left. To be noted: HCT-116.
For experiment [6] the target is unchanged. The experiment can be described thus: Inhibition of HSF1 in human HCT116 cells assessed as potentiation of SM258-induced increase in cell death at 30 uM relative to SM258 alone. Type of experiment: cell-based. Set-up: scale not given: the % may be the effect or the level left. To be noted: HCT-116.
The target is the same in experiment [7]. The experiment can be described thus: Inhibition of HSF1 in human HCT116 cells assessed as potentiation of SM258-induced increase in cell death at 15 uM relative to SM258 alone. The format is cell-based. More on the design: scale not given: the % may be the effect or the level left. The conditions noted are these: HCT-116.
Experiment [8] has the same target. The experiment can be described thus: Inhibition of HSF1 in human MIAPaCa2 cells assessed as potentiation of SM253-induced reduction in HSF1 at 50 uM relative to SM253 alone. Type of experiment: cell-based. Set-up: scale not given: the % may be the effect or the level left. The conditions noted are these: MIA PaCa-2.
Experiment [9] shares this target. In words: Inhibition of HSF1 in human HCT116 cells assessed as potentiation of SM253-induced increase in cell death at 5 uM relative to SM253 alone. Type of experiment: cell-based. Set-up: scale not given: the % may be the effect or the level left. To be noted: HCT-116.
Experiment [10] shares this target. The experiment can be described thus: Inhibition of HSF1 in human HCT116 cells assessed as potentiation of SM258-induced reduction in HSF1 at 30 uM relative to SM258 alone. The format is cell-based. More on the design: scale not given: the % may be the effect or the level left. The conditions noted are these: HCT-116.
Experiment [11] shares this target. In words: Inhibition of HSF1 in human HCT116 cells assessed as potentiation of SM253-induced reduction in HSF1 at 5 uM relative to SM253 alone. Type of experiment: cell-based. More on the design: scale not given: the % may be the effect or the level left. To be noted: HCT-116.
The target is the same in experiment [12]. In words: Inhibition of HSF1 in human MM.1S cells assessed as potentiation of NVP-AUY-922-induced reduction in cell proliferation at 6 nM relative to NVP-AUY-922 alone. More on the design: scale not given: the % may be the effect or the level left. The format is cell-based.
The target is the same in experiment [13]. In words: Inhibition of HSF1 in human HeLa cells assessed as potentiation of radicicol and heat-induced increase in cell death at 60 nM relative to radicicol and heat alone. Type of experiment: cell-based. Set-up: scale not given: the % may be the effect or the level left.
For experiment [14] the target is unchanged. In words: Inhibition of HSF1 in human H929 cells assessed as potentiation of 17-AAG-induced icrease in cell death at 100 nM relative to 17-AAG alone. Type of experiment: cell-based. More on the design: scale not given: the % may be the effect or the level left.
For experiment [15] the target is unchanged. In words: Inhibition of HSF1 in human INA63 cells assessed as potentiation of NVP-AUY-922-induced reduction in cell proliferation at 5 nM relative to NVP-AUY-922 alone. The format is cell-based. Set-up: scale not given: the % may be the effect or the level left.
Experiment [16] in a line: Induction of cell death in human PANC1 cells at 50 uM. The format is functional, PANC-1.
The nature of experiment [17]: Antitumor activity against human MIAPaCa2 cells xenografted in mouse assessed as reduction in tumor volume at 150 mg/kg. The format is functional, MIA PaCa-2. More on the design: scale not given: the % may be the effect or the level left.
Experiment [18] in a line: Induction of cell death in human MIAPaCa2 cells at 50 uM. The format is functional, MIA PaCa-2.
Experiment [19] has as its system A2058. The experiment can be described thus: Cytotoxicity against human A2058 cells in presence of HSF1 knock down treatment. Type of experiment: functional, cell-based.
Experiment [20] concerns A-375. In words: Cytotoxicity against human A375 cells in presence of HSF1 knock down treatment. Type of experiment: functional, cell-based.
Experiment [21] concerns A-375. The experiment can be described thus: Cytotoxicity against human A375 cells in absence of HSF1 knock down treatment. The format is functional, cell-based.
Experiment [22] concerns A2058. The experiment can be described thus: Cytotoxicity against human A2058 cells in absence of HSF1 knock down treatment. The format is functional, cell-based.
The test system of a further experiment is HCT-116. The experiment can be described thus: Antitumor activity against human HCT116 cells xenografted in mouse assessed as reduction in tumor size at 50 mg/kg. The format is functional.
For experiment [23], the target named is T2, Heat shock factor protein 1 (Homo sapiens, UniProt Q00613).
T2 sequence (Q00613 whole entry): T1 sequence (whole entry)
In words: Inhibition of HSF1 (unknown origin) assessed as reduction in HSF1--mediated HSP transcription.

Experiment [24] addresses T1, Heat shock factor protein 1 (Homo sapiens). The experiment can be described thus: Inhibition of HSF1 in human HL60 cells assessed as potentiation of 17-AAG-induced reduction in cologenicity at 400 uM relative to 17-AAG alone. The format is cell-based. Set-up: scale not given: the % may be the effect or the level left. To be noted: HL-60.
Experiment [25] shares this target. The experiment can be described thus: Inhibition of HSF1 in human HL60 cells assessed as potentiation of 17-AAG-induced increase in apoptosis at 400 uM relative to 17-AAG alone. Type of experiment: cell-based. More on the design: scale not given: the % may be the effect or the level left. The conditions noted are these: HL-60.
The target is the same in experiment [26]. In words: Inhibition of HSF1 in human ASB244 cells assessed as potentiation of geldanamycin-induced reduction in cell migration at 10 uM relative to geldanamycin alone. Type of experiment: cell-based. Set-up: scale not given: the % may be the effect or the level left.
Experiment [27] shares this target. In words: Inhibition of HSF1 in human ASB244 cells assessed as potentiation of geldanamycin-induced reduction in cell proliferation at 20 uM relative to geldanamycin alone. Type of experiment: cell-based. More on the design: scale not given: the % may be the effect or the level left.
For experiment [28] the target is unchanged. The experiment can be described thus: Inhibition of HSF1 in human ASB145 cells assessed as potentiation of geldanamycin-induced reduction in cell proliferation at 20 uM relative to geldanamycin alone. Type of experiment: cell-based. More on the design: scale not given: the % may be the effect or the level left.

Molecules are shown by their SMILES. Bounds are passed on as bounds.

For the compound `CCC1CN2CCc3cc(OC)c(OC)cc3C2CC1CC1NCCc2ccccc21` (centres undefined), the Activity in [1] worked out at 77%; in [2] it was 64%; in experiment [3] it was 30%; in experiment [4] it was 50%; in experiment [5], 60%; in experiment [6], 95%. In addition, the Activity in experiment [7] is 77%; in [8] it was 55%; in [9] it was 50%; in experiment [10] it was above 99%; in experiment [11] it was 30%.

On to `CC(C)[C@]12O[C@H]1[C@@H]1O[C@]13[C@]1(O[C@H]1C[C@H]1C4=C(CC[C@@]13C)C(=O)OC4)[C@@H]2O`, for which the Activity in experiment [12] was 35%; in [13], 45%; in experiment [14], 40%; in experiment [15], 45%.

Turning to `CCCCCCCc1ccc(C#Cc2nc(C(N)=O)n([C@@H]3O[C@H](CO)[C@@H](O)[C@H]3O)n2)cc1`, the Activity in experiment [16] is reported as 80%; in [17], 60%; in [18], 90%.

For `COc1cccc(-c2cc(F)ccc2[C@H]2Cc3nc(N)nc(C)c3C(=O)N2)n1`, the IC50 in the experiment on A2058 [19] turned out to be 5.2 nM; with A-375 [20] it was 6 nM; in the experiment with A-375 [21], 19 nM; in the experiment with A2058 [22], 12.7 nM.

In the case of `CNc1ccc([N+](=O)[O-])c(Nc2ccc3[nH]ncc3c2)n1`, the inhibition in vivo at 50 mg/kg with HCT-116 was found to be 50%. Further, the IC50 in experiment [23] is 1200 nM.

`O=CN1CC/C(=C/c2ccc3c(c2)OCO3)C1=O`: the Activity in experiment [24] worked out at 99%; in [25], 20%; in experiment [26], 75%; in experiment [27], 52%; in experiment [28], 72%.
